Assay: Dynamic vapor sorption (DVS) analysis
Format: physicochemical
Settings: between about 2 to about 92% relative humidity (RH); at 25° C.
Description: Dynamic vapor sorption (DVS) analysis was performed using a DVS Intrinsic 1. The sample (25 mg) was loaded into a sample pan, suspended from a microbalance and exposed to a humidified stream of nitrogen gas. The sample was held for a minimum of 5 min at each level and only progressed to the next humidity level if there was <0.002% change in weight between measurements (interval: 60 seconds) or 240 min had elapsed.

Cn1nccc1-c1cc2c(n3cnnc13)NCc1c(F)ccc3c1C(CO3)CO2 (stereo in doubt) [Form A, (S)-12-fluoro-4-(1-methyl-1H-pyrazol-5-yl)-7a,8,13,14-tetrahydro-7H-[1,2,4]triazolo[4′,3′:1,6]pyrido[3,2-b]benzofuro[4,3-fg][1,4]oxazonine]
DVS mass change expressed as equivalents of water: about 1.48 eq. water | dynamic vapor sorption (DVS) profile, mass change: about 6.34 wt. %

Cn1nccc1-c1cc2c(n3cnnc13)NCc1c(F)ccc3c1C(CO3)CO2 (stereo in doubt) [Form E, (S)-12-fluoro-4-(1-methyl-1H-pyrazol-5-yl)-7a,8,13,14-tetrahydro-7H-[1,2,4]triazolo[4′,3′:1,6]pyrido[3,2-b]benzofuro[4,3-fg][1,4]oxazonine]
dynamic vapor sorption (DVS) profile, mass change: about 0.23 wt. %

Cn1nccc1-c1cc2c(n3cnnc13)NCc1c(F)ccc3c1C(CO3)CO2 (stereo in doubt) [Form U, (S)-12-fluoro-4-(1-methyl-1H-pyrazol-5-yl)-7a,8,13,14-tetrahydro-7H-[1,2,4]triazolo[4′,3′:1,6]pyrido[3,2-b]benzofuro[4,3-fg][1,4]oxazonine]
dynamic vapor sorption (DVS) profile, mass change: about 0.38 wt. %

Reference: patent publication US20240199645A1, “POLYMORPHIC FORMS OF (S)-12-FLUORO-4-(1-METHYL-1H-PYRAZOL-5-YL)-7A,8,13,14-TETRAHYDRO-7H-[1,2,4]TRIAZOLO[4',3':1,6]PYRIDO[3,2-B]BENZOFURO[4,3-FG][1,4]OXAZONINE” (Fulcrum Therapeutics, Inc., priority 2021, published 2024)
